From patent US20250099508A1, “SYSTEMS, CELL LINES AND METHODS OF PRODUCING AND USING THE SAME” (THE REGENTS OF THE UNIVERSITY OF CALIFORNIA, priority 2022, published 2025)

Legend:
mouse colon = experiment: Ex vivo colonic motility assay (organ bath, GIMM); settings: for CMMC intervals at the 75th percentile relative to the untreated condition: five consecutive 10-min acquisitions, mouse colon ex vivo
[1] = tested on: stage 1 NOS1::GFP enteric ganglioids; experiment: NO neuron induction in stage 1 enteric ganglioids measured by flow cytometry (NOS1::GFP); type: cell-based, human; settings: for NO neuron induction / NO neuron proportions: RTK ligand treatment, stage 1 enteric ganglioids
Excerpt: (§1) To evaluate the potential of hPSC-derived cultures to model human ENS development, we set out to define the mechanism of NO neuron specification in vitro. Searching for pathways that regulate NO neuron differentiation, we performed a high-throughput small molecule screen. Identifying distinct pathways and chemical modulators that promote NO neuron induction could provide insights on NO neuron development and offer a strategy for the derivation of NO neuron enriched ENS cultures. • To identify compounds that induce NO neuron differentiation, we treated enteric crestospheres with 1694 compounds in the Selleck inhibitor library™ and identified 12 hit compounds that increased the proportion of NOS1^+ neurons by at least eight folds (FIG. 6A, FIGS. S25A and B). FIG. S25 data not shown, but it describes that small molecule high-throughput screening identifies compounds that enrich NO neurons in hESC-derived ENS cultures. […] After clustering the predicted protein targets, common patterns emerged for a subset of compounds.
To determine the mechanism by which PP121 induced NO neuron enrichment in ganglioids, we used a combination of pharmacological and genetic approaches. […] Our crestosphere snRNA-seq analysis confirmed the expression of PDGFRA, PDGFRB, ERBB2 and ERBB3 while the mRNA for VEGFRs were not detectable (FIG. 6L). We evaluated the induction efficiency of NO neurons in response to PDGF (PDGFR agonist), sunitinib (PDGFR and VEGFR antagonist), NRG1 (ERBBs agonist) and sapitinib (ERBBs antagonist) (FIG. 6M). […] To genetically confirm the role of PDGFR signaling in NO neuron induction, we used CRISPR-Cas9 to knock-out PDGFRA and PDGFRB in our enteric crestospheres and analyzed the percentage of NO neurons in stage 1 ganglioids. NO neurons were […] in both PDGFRA and PDGFRB knock-out cultures further confirming the PP121 mechanism of action (FIGS. 6O and P).

[2] = tested on: enteric ganglioid neurons; settings: MEA neuronal firing measurements
[3] = tested on: hESC-derived stage 2 enteric ganglioid NO neurons; settings: cFOS flow cytometry, cultures treated with epinephrine
[4] = tested on: H9 hESC-derived enteric crestospheres (NOS1+ neurons); experiment: High-throughput screening to identify compounds that enrich NO neurons; type: cell-based, human; settings: 1694 compounds, 1 μM, D15-D20, NOS1 staining at day 40
Excerpt: as §1
Day 15 H9 hESC-derived enteric crestospheres were dissociated into single cells (accutase, Stemcell Technologies, 07920, 30 min, 37° C.), resuspended in ENC medium and were transferred into 384-well plates. Plates were incubated for 2 hours for cells to attach. […]

PDGFRs = settings: cited from earlier work
EGFRs = settings: cited from earlier work
VEGFRs = settings: cited from earlier work
[5] = tested on: stage 1 enteric ganglioids; experiment: PP121 vs control gene expression correlation (snRNA-seq); type: cell-based, human
Excerpt: To compare PP121 treated and untreated stage 1 enteric ganglioids in single cell resolution, we performed snRNA-seq and combined both datasets. […] FIG. S26 data not shown, but it describes PP121 treatment enriches NO neurons without affecting their overall cellular diversity.
To compare the gene expression of control and PP121 treated cell types, neuronal subtypes and NO neuron subtypes, a subset dataset of each cell type and subtype annotation was first created. For each subset, the non-imputed average expression of all genes was then calculated for the control and PP121 treated cells using the “AverageExpression” function and natural log transformed for plotting. R^2 values comparing the control and PP121 natural log expression values were calculated from linear modeling using the “y ˜x” formula. cFOS expression screening

[6] = 6-min treatment, all five replicates

Cc1cccc(C#Cc2ccccc2)n1 [MPEP]
CMMC intervals at the 75th percentile relative to the untreated condition (mouse colon): promising effects on lowering CMMC intervals

PDGF
NO neuron induction / NO neuron proportions [1]: lower

CNC[C@H](O)c1ccc(O)c(O)c1 [Epinephrine, epinephrine]
electrical firing of ganglioid neurons [2]: increased electrical firing
neuronal cFOS expression [3]: induced neuronal cFOS expression

Nc1ncnc2c1c(-c1cnc3[nH]ccc3c1)nn2C1CCCC1 [PP121]
increase of the proportion of NOS1+ neurons relative to vehicle (DMSO) [4]: highest % NOS1^+ fold increase in this subset of compounds
inhibitory activity on PDGFRs (PDGFRs): known inhibitory activity
inhibitory activity on EGFRs (EGFRs): known inhibitory activity
NOS1::GFP induction efficiency by treatment window ([1]; five-day treatment at various time points, GFP signal in stage 1 ganglioids): highest induction efficiency for cells treated during day 15-20
NO neuron induction efficiency, dose dependence ([1]; flow cytometry): dose-dependent effect
inhibitory activity on VEGFRs (VEGFRs): known inhibitory activity
abundance of neuronal subtypes ([5]; merged control and PP121 treated neurons, snRNA-seq): enriched cultures for neuronal subtypes EN D and H
abundance of nitrergic neuron subtypes ([5]; merged control and PP121 treated nitrergic neurons): enrichment for Nitrergic B

CNC(=O)CN1CCC(Oc2cc3c(Nc4cccc(Cl)c4F)ncnc3cc2OC)CC1 [sapitinib]
NO neuron induction / NO neuron proportions [1]: no significant effect

O=C1CCc2ccc(OCCCCN3CCN(c4cccc(Cl)c4Cl)CC3)cc2N1 [aripiprazole]
CMMC intervals at the 75th percentile relative to the untreated condition (mouse colon): promising effects on lowering CMMC intervals

O=C1CCC[C@@H]2[C@H]3CCCN4CCC[C@@H](CN12)[C@@H]34 [matrine]
CMMC intervals at the 75th percentile relative to the untreated condition (mouse colon): promising effects on lowering CMMC intervals

Cc1cccc([C@H](C)c2cnc[nH]2)c1C [dexmedetomidine]
average duration of LCEs (mouse colon; [6]): increasing trend in their average duration
total number of longitudinal contractile events (LCEs) (mouse colon; [6]): decrease in the total number of LCEs
effects on LCEs after the drug removal (mouse colon; Krebs wash after drug): reversed after the drug removal
effects on LCEs with L-NAME co-treatment (mouse colon; L-NAME co-treatment): blocked by L-NAME co-treatment
effect on CMMC intervals with simultaneous L-NAME (mouse colon; dexmedetomidine+L-NAME simultaneously): absent
CMMC intervals at the 75th percentile relative to the untreated condition (mouse colon): promising effects on lowering CMMC intervals
CMMC intervals (mouse colon; sequential 6-min acquisitions, five sample pairs, drug alone): decreased CMMC intervals in four out of five colon samples
slow waves (SW) (mouse colon; sequential drug treatment): not affected
